Where two headings read alike, the source gives them in different places.

Consider 24 molecules from patent publication US10173971B2, “Picolinamides with fungicidal activity” (DOW AGROSCIENCES LLC, priority 2014, dated 2019).

In one assay the test system is Zymoseptoria tritici. Briefly: Fungicidal activity: leaf blotch of wheat (SEPTTR), wheat seedlings, booth sprayer to run-off or track spray. The format is in vivo. The note with it: for pest or weed control at 100 ppm: High-Volume Cereal Activity at 100 ppm; for pest or weed control at 121.5 g/ha: Low-Volume Cereal Activity at 121.5 g/H.
The next assay deals with Puccinia triticina. Briefly: Fungicidal activity: wheat brown rust (PUCCRT), wheat seedlings, booth sprayer to run-off or track spray. In kind it is in vivo. The note with it: for pest or weed control at 100 ppm: High-Volume Cereal Activity at 100 ppm; for pest or weed control at 121.5 g/ha: Low-Volume Cereal Activity at 121.5 g/H.
The mark [1] stands for this setting: 3DC (Day Curative), read-out: SEPTTR 3DC.
[2] abbreviates: 3DC (Day Curative), read-out: PUCCRT 3DC.
[3] abbreviates: 24 h, 1 Day Protectant, read-out: SEPTTR 1DP.
The mark [4] stands for this setting: 72 h, 3 Day Curative, read-out: SEPTTR 3DC.
Where [5] appears, read: 24 h, 1 Day Protectant, read-out: PUCCRT 1DP.
[6] abbreviates: 72 h, 3 Day Curative, read-out: PUCCRT 3DC.

Consider `CCCOC[C@@H](Cc1ccccc1)[C@H](C)OC(=O)CNC(=O)c1nccc(OC)c1O` [compound 104], for which the pest or weed control at 100 ppm with Zymoseptoria tritici (setting [1]) and in the assay on Puccinia triticina (setting [2]) was 0 to 80% in each case.

`CC[C@@H](Oc1ccccc1)[C@@H](Cc1ccccc1)[C@H](C)OC(=O)[C@H](C)NC(=O)c1nccc(OC)c1OCOC(C)=O` [compound 192]: the pest or weed control at 121.5 g/ha in the assay with Zymoseptoria tritici (setting [3]), in the assay on Zymoseptoria tritici (setting [4]), in the assay on Puccinia triticina (setting [5]) and in the assay with Puccinia triticina (setting [6]) was 80 to 100% each time.

Consider `COc1ccnc(C(=O)N[C@@H](C)C(=O)O[C@@H](C)[C@@H](COc2ccccc2)Cc2ccccc2)c1OCOC(C)=O` [compound 208], for which the pest or weed control at 121.5 g/ha in the assay with Zymoseptoria tritici (setting [3]) was 80 to 100%; in the assay with Zymoseptoria tritici (setting [4]), 0 to 80%; with Puccinia triticina (setting [5]), 80 to 100%; in the assay with Puccinia triticina (setting [6]), 0 to 80%.

For the molecule `CCCC[C@H](c1ccccc1)[C@H](C)OC(=O)[C@H](C)NC(=O)c1nccc(OC)c1OCOC(=O)C(C)C` [compound 200], the pest or weed control at 121.5 g/ha with Zymoseptoria tritici (setting [3]), with Zymoseptoria tritici (setting [4]), in the assay on Puccinia triticina (setting [5]) and in the assay with Puccinia triticina (setting [6]) was 80 to 100% in each case.

In the case of `CCCO[C@@H](CC)[C@@H](Cc1ccccc1)[C@H](C)OC(=O)C(C)(C)NC(=O)c1nccc(OC)c1O` [compound 100], the pest or weed control at 100 ppm in the assay with Zymoseptoria tritici (setting [1]) and in the assay with Puccinia triticina (setting [5]) was 0 to 80% each time.

For `COc1ccnc(C(=O)N[C@@H](C)C(=O)O[C@@H](C)[C@H](Cc2ccc(F)cc2)C(C)(C)OC)c1O` [compound 136], the figures for the pest or weed control at 100 ppm in the assay with Zymoseptoria tritici (setting [1]), in the assay on Puccinia triticina (setting [5]) and in the assay on Puccinia triticina (setting [2]) were 80 to 100%, 0 to 80% and 0 to 80%, respectively.

For the molecule `COc1ccc(C[C@@H]([C@H](C)OC(=O)[C@H](C)NC(=O)c2nccc(OC)c2OCOC(C)=O)C(C)(C)OCC2CC2)cc1` [compound 278], the pest or weed control at 121.5 g/ha in the assay on Zymoseptoria tritici (setting [3]) lay within 0 to 80%; in the assay with Zymoseptoria tritici (setting [4]), 0 to 80%; with Puccinia triticina (setting [5]) it was 80 to 100%; in the assay with Puccinia triticina (setting [6]) it was 0 to 80%.

Consider `CCCC[C@H](c1ccccc1)[C@H](C)OC(=O)[C@H](C)NC(=O)c1nccc(OC)c1OC(C)=O` [compound 197], for which the pest or weed control at 121.5 g/ha in the assay on Zymoseptoria tritici (setting [3]), in the assay with Zymoseptoria tritici (setting [4]), with Puccinia triticina (setting [5]) and with Puccinia triticina (setting [6]) was 80 to 100% each time.

For the molecule `COc1ccnc(C(=O)N[C@@H](C)C(=O)O[C@@H](C)[C@H](Cc2ccc(F)cc2)C(C)(C)OCc2ccc(F)cc2)c1O` [compound 139], the pest or weed control at 100 ppm with Zymoseptoria tritici (setting [3]), in the assay with Zymoseptoria tritici (setting [1]) and in the assay on Puccinia triticina (setting [5]) was 0 to 80% throughout.

As for `COc1ccc(C[C@H](COc2ccc(F)cc2F)[C@H](C)OC(=O)[C@H](C)NC(=O)c2nccc(OC)c2O)cc1` [compound 160], the pest or weed control at 100 ppm lay within 0 to 80% in the assay on Zymoseptoria tritici (setting [3]) and 80 to 100% in the assay with Puccinia triticina (setting [5]).

As for `CC[C@H](NC(=O)c1nccc(OC)c1O)C(=O)OC(C)C(Cc1ccccc1)Cc1ccccc1` (some centres unmarked) [compound 149], the pest or weed control at 100 ppm in the assay with Zymoseptoria tritici (setting [3]) and in the assay on Puccinia triticina (setting [5]) was 80 to 100% each time.

For the molecule `CCCOC(C)(C)[C@@H](Cc1ccccc1)[C@H](C)OC(=O)[C@H](C)NC(=O)c1nccc(OC)c1OCOC(C)=O` [compound 207], the pest or weed control at 121.5 g/ha in the assay with Zymoseptoria tritici (setting [3]), with Zymoseptoria tritici (setting [4]), with Puccinia triticina (setting [5]) and in the assay on Puccinia triticina (setting [6]) was 80 to 100% in each case.

As for `COc1ccnc(C(=O)N[C@@H](C)C(=O)O[C@@H](C)[C@H](Cc2ccc(F)cc2)c2ccccc2)c1OCOC(C)=O` [compound 222], the pest or weed control at 121.5 g/ha in the assay on Zymoseptoria tritici (setting [3]), with Zymoseptoria tritici (setting [4]) and in the assay with Puccinia triticina (setting [5]) was 80 to 100% each time.

Consider `CC[C@@H](c1ccccc1)[C@H](C)OC(=O)[C@H](C)NC(=O)c1nccc(OC)c1OC(C)=O` [compound 283], for which the pest or weed control at 121.5 g/ha was in the range of 0 to 80% in the assay on Zymoseptoria tritici (setting [3]), 80 to 100% in the assay on Zymoseptoria tritici (setting [4]), 80 to 100% in the assay on Puccinia triticina (setting [5]) and 80 to 100% in the assay on Puccinia triticina (setting [6]).

Regarding `COc1ccnc(C(=O)N[C@@H](C)C(=O)O[C@@H](C)[C@@H](COc2ccc(Cl)cc2Cl)Cc2ccccc2)c1O` [compound 126], the pest or weed control at 100 ppm with Zymoseptoria tritici (setting [3]) and in the assay on Puccinia triticina (setting [5]) was 0 to 80% throughout.

For `CCCOC[C@@H](Cc1ccccc1)[C@H](C)OC(=O)[C@@H](C)NC(=O)c1nccc(OC)c1OCOC(C)=O` [compound 166], the pest or weed control at 100 ppm is 0 to 80% in the assay on Zymoseptoria tritici (setting [3]), 0 to 80% with Zymoseptoria tritici (setting [1]), 80 to 100% in the assay on Puccinia triticina (setting [5]) and 80 to 100% in the assay with Puccinia triticina (setting [2]).

In the case of `COc1ccnc(C(=O)N[C@@H](C)C(=O)O[C@@H](C)[C@H](Cc2ccc(F)cc2)C(C)(C)OC)c1OCOC(C)=O` [compound 244], the pest or weed control at 121.5 g/ha with Zymoseptoria tritici (setting [3]) was in the range of 0 to 80%; in the assay on Zymoseptoria tritici (setting [4]) it was 80 to 100%; with Puccinia triticina (setting [5]) it was 80 to 100%; in the assay with Puccinia triticina (setting [6]), 80 to 100%.

In the case of `COc1ccnc(C(=O)N[C@@H](C)C(=O)O[C@@H](C)[C@@H](COc2ccccc2)Cc2ccccc2)c1O` [compound 125], the pest or weed control at 100 ppm in the assay on Zymoseptoria tritici (setting [3]), with Zymoseptoria tritici (setting [1]), in the assay with Puccinia triticina (setting [5]) and with Puccinia triticina (setting [2]) was 0 to 80% each time.

`COc1ccnc(C(=O)N[C@@H](C)C(=O)O[C@@H](C)[C@H](Cc2ccccc2)C(C)C)c1OCOC(C)=O` [compound 206]: the pest or weed control at 121.5 g/ha in the assay on Zymoseptoria tritici (setting [3]), in the assay on Zymoseptoria tritici (setting [4]), in the assay with Puccinia triticina (setting [5]) and in the assay on Puccinia triticina (setting [6]) was 80 to 100% throughout.

Turning to `COc1ccnc(C(=O)N[C@@H](C)C(=O)OC(C)C(Cc2cccc(F)c2)Cc2cccc(F)c2)c1OC(C)=O` (some centres unmarked) [compound 263], the pest or weed control at 121.5 g/ha with Zymoseptoria tritici (setting [3]), in the assay with Zymoseptoria tritici (setting [4]), in the assay on Puccinia triticina (setting [5]) and with Puccinia triticina (setting [6]) was 0 to 80% in each case.

For `CCCC[C@@H]([C@H](C)OC(=O)[C@H](C)NC(=O)c1nccc(OC)c1OC(=O)O)[C@@H](CC)Oc1ccccc1` [compound 190], the pest or weed control at 121.5 g/ha with Zymoseptoria tritici (setting [3]), in the assay on Zymoseptoria tritici (setting [4]), in the assay with Puccinia triticina (setting [5]) and with Puccinia triticina (setting [6]) was 80 to 100% throughout.

With `COc1ccnc(C(=O)N[C@@H](C)C(=O)O[C@@H](C)[C@H](Cc2ccccc2)C(C)C)c1OC(C)=O` [compound 205], the pest or weed control at 121.5 g/ha with Zymoseptoria tritici (setting [3]), with Zymoseptoria tritici (setting [4]), in the assay with Puccinia triticina (setting [5]) and in the assay on Puccinia triticina (setting [6]) was 80 to 100% each time.

Turning to `CCCOC[C@@H](Cc1ccccc1)[C@H](C)OC(=O)[C@H](CC)NC(=O)c1nccc(OC)c1O` [compound 98], the pest or weed control at 100 ppm with Zymoseptoria tritici (setting [3]), in the assay on Zymoseptoria tritici (setting [1]), in the assay on Puccinia triticina (setting [5]) and with Puccinia triticina (setting [2]) was 80 to 100% each time.

With `CCOCC(=O)OCOc1c(OC)ccnc1C(=O)N[C@@H](C)C(=O)O[C@@H](C)[C@H](Cc1ccc(F)cc1)C(C)(C)OC` [compound 238], the pest or weed control at 121.5 g/ha lay in the range of 0 to 80% with Zymoseptoria tritici (setting [3]), 0 to 80% in the assay with Zymoseptoria tritici (setting [4]), 80 to 100% with Puccinia triticina (setting [5]) and 0 to 80% in the assay on Puccinia triticina (setting [6]).
